24 molecules from patent US20090214529A9, “KINESIN INHIBITORS” (TaiGen Biotechnology Co., Ltd., priority 2007, published 2009) can be followed below.

The subject of the test is tumor cell. Nature of the test: Cytotoxicity assay (MTS). Type of test: cell-based. To be noted: 72 h; incubation for three days; read-out: IC50, tumor cell growth inhibition (MTS). The gist of the method: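 Tumour cells seeded overnight, then exposed to varying compound concentrations for three days. Viability read by MTS/PMS conversion to formazan (2 h, 37 °C, absorbance 490 nm). Results given as blank-corrected T/C (%) against vehicle controls.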

`Cc1ccc(C(=O)N(CCN)C(c2nc3c(oc4ccccc43)c(=O)n2Cc2ccc(Cl)s2)C(C)C)cc1` (stereo not drawn) [Compound 160]: the concentration for half-maximal inhibition (IC50) is less than 30 µM. For the molecule `Cc1ccc(C(=O)N(CCN)C(c2nc3c(oc4ccccc43)c(=O)n2Cc2cc(C)cs2)C(C)C)cc1` (stereo not drawn) [Compound 161], the 50% inhibitory concentration (IC50) is less than 30 µM.

As for `Cc1ccc(C(=O)N(CCN)C(c2nc3c(oc4ccccc43)c(=O)n2Cc2ccc(Cl)o2)C(C)C)cc1` (stereo not drawn) [Compound 162], the IC50 is less than 30 µM. The figure for `Cc1ccc(C(=O)N(CCN)C(c2nc3c(oc4ccccc43)c(=O)n2Cc2ccc(C#N)s2)C(C)C)cc1` (stereo not drawn) [Compound 163] is less than 30 µM; for `Cc1ccc(C(=O)N(CCN)C(c2nc3c(oc4ccccc43)c(=O)n2Cc2ccc(Br)s2)C(C)C)cc1` (stereo not drawn) [Compound 164] it is less than 30 µM; for `Cc1ccc(C(=O)N(CCN)C(c2nc3c(oc4ccccc43)c(=O)n2Cc2ccc(Br)o2)C(C)C)cc1` (stereo not drawn) [Compound 165] it is less than 30 µM.

In the case of `Cc1csc(Cn2c(C(C(C)C)N(CCN)C(=O)c3ccc(Cl)cc3)nc3c(oc4ccc(F)cc43)c2=O)c1` (stereo not drawn) [Compound 166], the half-maximal inhibitory concentration (IC50) is less than 30 µM. The result for `Cc1csc(Cn2c(C(C(C)C)N(CCN)C(=O)c3ccc(Br)cc3)nc3c(oc4ccc(F)cc43)c2=O)c1` (stereo not drawn) [Compound 167] reads less than 30 µM; that for `CC(C)C(c1nc2c(oc3ccc(F)cc32)c(=O)n1Cc1ccc(Cl)o1)N(CCN)C(=O)c1ccc(Cl)cc1` (stereo not drawn) [Compound 169], less than 30 µM; that for `CC(C)C(c1nc2c(oc3ccc(F)cc32)c(=O)n1Cc1ccc(Cl)o1)N(CCN)C(=O)c1ccc(Br)cc1` (stereo not drawn) [Compound 170], less than 30 µM.

As to `CC(C)C(c1nc2c(oc3ccc(F)cc32)c(=O)n1Cc1ccc(Cl)o1)N(CCN)C(=O)c1ccc(C(F)(F)F)cc1` (stereo not drawn) [Compound 171], the half-maximal inhibitory concentration (IC50) was less than 30 µM.

Regarding `CC(C)C(c1nc2c(oc3ccc(F)cc32)c(=O)n1Cc1ccc(C#N)s1)N(CCN)C(=O)c1ccc(Cl)cc1` (stereo not drawn) [Compound 172], the half-maximal inhibitory concentration (IC50) was less than 30 µM. For `CC(C)C(c1nc2c(oc3ccc(F)cc32)c(=O)n1Cc1ccc(C#N)s1)N(CCN)C(=O)c1ccc(Br)cc1` (stereo not drawn) [Compound 173], the IC50 is less than 30 µM.

Regarding `Cc1ccc(C(=O)N(CCN)C(c2nc3c(oc4ccc(F)cc43)c(=O)n2Cc2ccc(C#N)s2)C(C)C)cc1F` (stereo not drawn) [Compound 174], the concentration for half-maximal inhibition (IC50) was less than 30 µM. In the case of `Cc1ccc(C(=O)N(CCCN)[C@@H](c2nc3c(oc4ccccc43)c(=O)n2Cc2ccccc2)C(C)C)cc1` [Compound 175], the IC50 was less than 30 µM. The result for `Cc1csc(Cn2c([C@@H](C(C)C)N(CCN)C(=O)c3ccc(C)c(F)c3)nc3c(oc4ccc(F)cc43)c2=O)c1` [Compound 176] reads less than 30 µM; that for `Cc1ccc(C(=O)N(CCN)[C@@H](c2nc3c(oc4ccc(F)cc43)c(=O)n2Cc2cc(C#N)cs2)C(C)C)cc1` [Compound 178], less than 30 µM; that for `Cc1ccc(C(=O)N(CCN)[C@@H](c2nc3c(oc4ccc(F)cc43)c(=O)n2Cc2cc(C)cs2)C(C)C)cc1` [Compound 179], less than 30 µM. On to `Cc1ccc(Cn2c([C@@H](C(C)C)N(CCN)C(=O)c3ccc(C)cc3)nc3c(oc4ccc(F)cc43)c2=O)cc1` [Compound 180], for which the IC50 is less than 30 µM. The figure for `Cc1csc(Cn2c([C@@H](C(C)C)N(CCN)C(=O)c3ccc(Cl)cc3)nc3c(oc4ccc(F)cc43)c2=O)c1` [Compound 181] is less than 30 µM; for `Cc1ccc(C(=O)N(CCN)[C@@H](c2nc3c(oc4ccc(F)cc43)c(=O)n2Cc2ccc(Cl)s2)C(C)C)cc1` [Compound 182] it is less than 30 µM. The result for `Cc1ccc(C(=O)N(CCN)[C@@H](c2nc3c(oc4ccc(F)cc43)c(=O)n2Cc2ccc(Br)s2)C(C)C)cc1` [Compound 183] reads less than 30 µM; that for `Cc1ccc(Cn2c([C@@H](C(C)C)N(CCN)C(=O)c3ccc(Cl)cc3)nc3c(oc4ccc(F)cc43)c2=O)cc1` [Compound 184], less than 30 µM; that for `Cc1ccc(C(=O)N(CCN)[C@@H](c2nc3c(oc4ccc(F)cc43)c(=O)n2Cc2ccco2)C(C)C)cc1` [Compound 185], less than 30 µM.
